Test system: MCF-7 breast cancer cells
Test: Microarray gene expression analysis (Agilent whole human genome 4 x 44K; compound vs DMSO, LIMMA log2 fold change)
Format: cell-based

## Cn1ncc2c(N3CCOCC3)nc(-c3cccc(O)c3)nc21 [ETP-45658]
Apoptosis genes, Gene 64919
  BCL11B log2FC: 0.176
Apoptosis genes, Gene 64975
  MRPL41 log2FC: -0.545
Apoptosis genes, Gene 65018
  PINK1 log2FC: 1.625
Apoptosis genes, Gene 65121
  PRAMEF1 log2FC: -0.072
Apoptosis genes, Gene 65122
  PRAMEF2 log2FC: 0.062
Apoptosis genes, Gene 65264
  UBE2Z log2FC: -0.414
Apoptosis genes, Gene 79073
  TMEM109 log2FC: -0.626
Apoptosis genes, Gene 79094
  CHAC1 log2FC: -0.144
Apoptosis genes, Gene 79155
  TNIP2 log2FC: -0.126
Apoptosis genes, Gene 79156
  PLEKHF1 log2FC: -0.469
Apoptosis genes, Gene 79228
  THOC6 log2FC: -0.373
Apoptosis genes, Gene 79370
  BCL2L14 log2FC: -0.145
Apoptosis genes, Gene 79444
  BIRC7 log2FC: -0.043
Apoptosis genes, Gene 79767
  ELMO3 log2FC: -0.597
Apoptosis genes, Gene 79811
  SLTM log2FC: 0.763
Apoptosis genes, Gene 80149
  ZC3H12A log2FC: -1.168
Apoptosis genes, Gene 80196
  RNF34 log2FC: -0.174
Apoptosis genes, Gene 80237
  ELL3 log2FC: 1.095
Apoptosis genes, Gene 80315
  CPEB4 log2FC: 0.577
Apoptosis genes, Gene 80781
  COL18A1 log2FC: -0.387
Apoptosis genes, Gene 81537
  SGPP1 log2FC: -0.165
Apoptosis genes, Gene 81858
  SHARPIN log2FC: -0.232
Apoptosis genes, Gene 83464
  APH1B log2FC: -0.559
Apoptosis genes, Gene 83593
  RASSF5 log2FC: -0.091
Apoptosis genes, Gene 83595
  SOX7 log2FC: -0.214
Apoptosis genes, Gene 83596
  BCL2L12 log2FC: -0.236
Apoptosis genes, Gene 83737
  ITCH log2FC: 0.721
Apoptosis genes, Gene 83879
  CDCA7 log2FC: 0.213
Apoptosis genes, Gene 83940
  TATDN1 log2FC: 0.636
Apoptosis genes, Gene 83941
  TM2D1 log2FC: 0.088
Apoptosis genes, Gene 84033
  OBSCN log2FC: 0.277
Apoptosis genes, Gene 84231
  TRAF7 log2FC: -0.191
Apoptosis genes, Gene 84236
  RHBDD1 log2FC: -0.533
Apoptosis genes, Gene 84260
  TCHP log2FC: 0.198
Apoptosis genes, Gene 84287
  ZDHHC16 log2FC: -0.471
Apoptosis genes, Gene 84289
  ING5 log2FC: -0.932
Apoptosis genes, Gene 84335
  AKT1S1 log2FC: -0.939
Apoptosis genes, Gene 84433
  CARD11 log2FC: 0.083
Apoptosis genes, Gene 84447
  SYVN1 log2FC: 0.455
Apoptosis genes, Gene 84524
  ZC3H8 log2FC: 1.519
Apoptosis genes, Gene 84624
  FNDC1 log2FC: -0.102
Apoptosis genes, Gene 84674
  CARD6 log2FC: 0.198
Apoptosis genes, Gene 84681
  HINT2 log2FC: -0.153
Apoptosis genes, Gene 84707
  BEX2 log2FC: 0.736
Apoptosis genes, Gene 84951
  TNS4 log2FC: -1.366
Apoptosis genes, Gene 84971
  ATG4D log2FC: -0.461
Apoptosis genes, Gene 85508
  SCRT2 log2FC: -0.569
Apoptosis genes, Gene 89780
  WNT3A log2FC: -0.585
Apoptosis genes, Gene 89846
  FGD3 log2FC: 0.596
Apoptosis genes, Gene 90249
  UNC5A log2FC: -0.468
Apoptosis genes, Gene 90427
  BMF log2FC: 2.299
Apoptosis genes, Gene 92140
  MTDH log2FC: 0.563
Apoptosis genes, Gene 92609
  TIMM50 log2FC: -0.439
Apoptosis genes, Gene 94241
  TP53INP1 log2FC: 0.920
Apoptosis genes, Gene 112398
  EGLN2 log2FC: 0.272
Apoptosis genes, Gene 112399
  EGLN3 log2FC: -0.474
Apoptosis genes, Gene 114824
  PNMA5 log2FC: 0.435
Apoptosis genes, Gene 115584
  SLC5A11 log2FC: 0.136
Apoptosis genes, Gene 117581
  TWIST2 log2FC: -0.722
Apoptosis genes, Gene 117584
  RFFL log2FC: -0.488
Apoptosis genes, Gene 121512
  FGD4 log2FC: 0.637
Apoptosis genes, Gene 122042
  RXFP2 log2FC: -0.049
Apoptosis genes, Gene 123879
  DCUN1D3 log2FC: -1.081
Apoptosis genes, Gene 130399
  ACVR1C log2FC: 0.259
Apoptosis genes, Gene 133396
  IL31RA log2FC: 0.071
Apoptosis genes, Gene 133746
  JMY log2FC: 1.016
Apoptosis genes, Gene 137970
  UNC5D log2FC: 0.118
Apoptosis genes, Gene 140735
  DYNLL2 log2FC: -0.697
Apoptosis genes, Gene 143471
  PSMA8 log2FC: 0.068
Apoptosis genes, Gene 148022
  TICAM1 log2FC: -0.493
Apoptosis genes, Gene 149428
  BNIPL log2FC: -0.061
Apoptosis genes, Gene 151112
  ZSWIM2 log2FC: 0.088
Apoptosis genes, Gene 153090
  DAB2IP log2FC: -0.220
Apoptosis genes, Gene 160728
  SLC5A8 log2FC: -0.070
Apoptosis genes, Gene 171558
  PTCRA log2FC: -0.425
Apoptosis genes, Gene 192286
  HIGD2A log2FC: -0.398
Apoptosis genes, Gene 201163
  FLCN log2FC: 0.968
Apoptosis genes, Gene 204851
  HIPK1 log2FC: -0.153
Apoptosis genes, Gene 219699
  UNC5B log2FC: -0.570
Apoptosis genes, Gene 220441
  RNF152 log2FC: -0.038
Apoptosis genes, Gene 221472
  FGD2 log2FC: -0.102
Apoptosis genes, Gene 255027
  MPV17L log2FC: -0.367
Apoptosis genes, Gene 259230
  TMEM23 log2FC: 0.357
Apoptosis genes, Gene 260425
  MAGI3 log2FC: 0.325
Apoptosis genes, Gene 282991
  BLOC1S2 log2FC: 0.498
Apoptosis genes, Gene 340371
  NRBP2 log2FC: -0.074
Apoptosis genes, Gene 342977
  NANOS3 log2FC: -0.124
Apoptosis genes, Gene 347902
  AMIGO2 log2FC: 0.532
Apoptosis genes, Gene 387263
  C6orf120 log2FC: -0.615
Apoptosis genes, Gene 392255
  GDF6 log2FC: -0.089
Apoptosis genes, Gene 399687
  MYO18A log2FC: -0.470
Apoptosis genes, Gene 401940
  PRAMEF3 log2FC: -0.272
Apoptosis genes, Gene 414149
  ADIPOQ log2FC: -0.245
Apoptosis genes, Gene 415116
  PIM3 log2FC: 0.693
Apoptosis genes, Gene 653499
  LGALS7 log2FC: -0.163
Apoptosis genes, Gene 728489
  CARD9 log2FC: -0.457
Apoptosis genes, Gene 728613
  PDCD6 log2FC: -0.285
Apoptosis genes, Gene 730092
  RRN3 log2FC: 0.619
Apoptosis genes, Gene 100133941
  CD24 log2FC: 0.127
Gene 90, cell cycle genes
  ACVR1 log2FC: 0.534
Gene 91, cell cycle genes
  ACVR1B log2FC: -0.563
Gene 116, cell cycle genes
  ADCYAP1 log2FC: 0.068
Gene 196, cell cycle genes
  AHR log2FC: 0.995
Gene 199, cell cycle genes
  AIF1 log2FC: -0.077
Gene 203, cell cycle genes
  AK1 log2FC: -0.344
Gene 207, cell cycle genes
  AKT1 log2FC: -0.608
Gene 208, cell cycle genes
  AKT2 log2FC: -0.554
Gene 247, cell cycle genes
  ALOX15B log2FC: -0.102
Gene 288, cell cycle genes
  ANK3 log2FC: 0.532
Gene 301, cell cycle genes
  ANXA1 log2FC: 0.991
Gene 311, cell cycle genes
  ANXA11 log2FC: -0.496
Gene 322, cell cycle genes
  APBB1 log2FC: 0.078
Gene 323, cell cycle genes
  APBB2 log2FC: -0.357
Gene 328, cell cycle genes
  APEX1 log2FC: 0.266
Gene 329, cell cycle genes
  BIRC2 log2FC: 0.082
Gene 351, cell cycle genes
  APP log2FC: 0.379
Gene 382, cell cycle genes
  ARF6 log2FC: -0.682
Gene 388, cell cycle genes
  RHOB log2FC: -0.133
Gene 389, cell cycle genes
  RHOC log2FC: -0.491
Gene 402, cell cycle genes
  ARL2 log2FC: -0.140
Gene 403, cell cycle genes
  ARL3 log2FC: 0.192
Gene 440, cell cycle genes
  ASNS log2FC: -0.404
Gene 571, cell cycle genes
  BACH1 log2FC: 0.774
Gene 580, cell cycle genes
  BARD1 log2FC: 0.487
Gene 585, cell cycle genes
  BBS4 log2FC: 1.207
Gene 595, cell cycle genes
  CCND1 log2FC: -1.564
Gene 596, cell cycle genes
  BCL2 log2FC: -0.310
Gene 598, cell cycle genes
  BCL2L1 log2FC: -0.991
Gene 613, cell cycle genes
  BCR log2FC: -0.914
Gene 637, cell cycle genes
  BID log2FC: -0.095
Gene 650, cell cycle genes
  BMP2 log2FC: -0.038
Gene 655, cell cycle genes
  BMP7 log2FC: -0.344
Gene 667, cell cycle genes
  DST log2FC: 0.571
Gene 672, cell cycle genes
  BRCA1 log2FC: 0.792
Gene 676, cell cycle genes
  BRDT log2FC: 0.068
Gene 699, cell cycle genes
  BUB1 log2FC: 0.803
Gene 801, cell cycle genes
  CALM1 log2FC: 0.216
Gene 811, cell cycle genes
  CALR log2FC: -0.081
Gene 815, cell cycle genes
  CAMK2A log2FC: 0.024
Gene 817, cell cycle genes
  CAMK2D log2FC: 0.613
Gene 818, cell cycle genes
  CAMK2G log2FC: 0.874
Gene 835, cell cycle genes
  CASP2 log2FC: -0.918
Gene 858, cell cycle genes
  CAV2 log2FC: 0.696
Gene 864, cell cycle genes
  RUNX3 log2FC: -0.494
Gene 890, cell cycle genes
  CCNA2 log2FC: -0.047
Gene 891, cell cycle genes
  CCNB1 log2FC: 0.072
Gene 892, cell cycle genes
  CCNC log2FC: 0.257
Gene 894, cell cycle genes
  CCND2 log2FC: -1.006
Gene 896, cell cycle genes
  CCND3 log2FC: -0.730
Gene 898, cell cycle genes
  CCNE1 log2FC: -0.471
Gene 900, cell cycle genes
  CCNG1 log2FC: 0.908
Gene 901, cell cycle genes
  CCNG2 log2FC: 3.913
Gene 940, cell cycle genes
  CD28 log2FC: 0.087
Gene 988, cell cycle genes
  CDC5L log2FC: 1.004
Gene 990, cell cycle genes
  CDC6 log2FC: -0.800
Gene 991, cell cycle genes
  CDC20 log2FC: -0.346
Gene 993, cell cycle genes
  CDC25A log2FC: -1.970
